From patent US9049858B2, “Pest controlling composition and method for controlling pest” (SUMITOMO CHEMICAL COMPANY, LIMITED, priority 2010, dated 2015)

Tested on: gray mold fungus (Botrytis cinerea)
Experiment: Cucumber leaf disk preventive test against gray mold fungus
Type: in vivo
Settings: 15° C., six days
Procedure: True leaf of cucumber was punched out with cork borer to 13 mm in diameter to prepare a leaf disk. In 24 well microwell plate that was dispensed with 1 ml 0.8% water agar, the leaf disk was placed such that the upper side of the leaf was in an upward direction. […] Control where 20 micro liter ion-exchange water was spread was prepared (for non-treated group). After confirming that the spray solution was dried, conidium of gray mold fungus (Botrytis cinerea) was suspended into potato dextrose broth (DIFCO) in a density, of about 10^5 conidia/mL and was then subjected to a spray inoculation. After leaving to stand the leaf disk in a growth chamber set up at 15° C. for six days, an onset area on each leaf was measured and a preventive value was then calculated by the following equation 1.
The same above operations were carried out using spinetoram or spinosad instead of abamectin, so as to obtain the respective preventive values. Preventive value(%)=100×(A−B)/A (Equation 1)
A: an onset area rate of plant belonging to non-treated group
B: an onset area rate of plant belonging to treated group onset area rate=(onset area of the leaf disk)/(the total area of the leaf disk)
The same above operations as described in Test Examples 1 to 6 were carried out using emamectin-benzoate, lepimectin or milbemectin instead of abamectin, so as to obtain the respective preventive values. […]

## CNC(=O)C(OC)c1ccccc1COc1cc(C)ccc1C (centres unmarked) [the present amide compound]
The present amide compound alone 1.0 ppm (dimethyl sulfoxide solution)
  preventive value (%): 46%
The present amide compound alone 2.5 ppm (dimethyl sulfoxide solution)
  preventive value (%): 56%
